Laboratory results: PubChem BioAssay AID330 (DTP/NCI, 2004)
Where “and” joins values, the source holds several entries; their conditions need not be identical. Identical values can stand only once. Toxic doses and inconclusive results are not listed. Peptide text beside a SMILES is read from it. * marks the point of attachment. Cbz = O=C(OCc1ccccc1)*; OBn = c1ccc(CO*)cc1

Tested on: P388 leukemia ip, CD2F1 mice, survival T/C
Assay: NCI In Vivo Anticancer Drug Screen. Data for tumor model P388 Leukemia (intraperitoneal) in CD2F1 (CDF1) mice
Conditions: endpoint: median survival time, higher = longer survival
In short: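 Mice carrying the transplanted tumor received test compound or vehicle. Survival was recorded in each group, and the value is the treated-group measurement divided by that of the vehicle-treated control group.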

[1] = dose: 50.0 mg/kg/injection, schedule: Q01DX009 (ip), vehicle: Klucel (hydroxypropylcellulose) (HPC)
[2] = dose: 100.0 mg/kg/injection, schedule: Q01DX009 (ip), vehicle: Klucel (hydroxypropylcellulose) (HPC)
[3] = dose: 200.0 mg/kg/injection, schedule: Q01DX009 (ip), vehicle: Klucel (hydroxypropylcellulose) (HPC)
[4] = dose: 50.0 mg/kg/injection, schedule: Q01DX005 (ip), vehicle: Klucel (hydroxypropylcellulose) (HPC)
[5] = dose: 100.0 mg/kg/injection, schedule: Q01DX005 (ip), vehicle: Klucel (hydroxypropylcellulose) (HPC)
[6] = dose: 200.0 mg/kg/injection, schedule: Q01DX005 (ip), vehicle: Klucel (hydroxypropylcellulose) (HPC)
[7] = dose: 50.0 mg/kg/injection, schedule: Q01DX009 (ip), vehicle: water
[8] = dose: 6.25 mg/kg/injection, schedule: Q01DX009 (ip), vehicle: saline
[9] = dose: 12.5 mg/kg/injection, schedule: Q01DX009 (ip), vehicle: saline
[10] = dose: 25.0 mg/kg/injection, schedule: Q01DX009 (ip), vehicle: saline
[11] = dose: 50.0 mg/kg/injection, schedule: Q01DX009 (ip), vehicle: saline with Tween-80
[12] = dose: 50.0 mg/kg/injection, schedule: Q01DX009 (ip), vehicle: saline
[13] = dose: 100.0 mg/kg/injection, schedule: Q01DX009 (ip), vehicle: saline

For `COc1cc(O)c2c(=O)c3c(O)c(O)ccc3oc2c1`, the T/C (dose: 0.63 mg/kg/injection, schedule: Q01DX009 (ip), vehicle: saline) was 108 % of control, the T/C (dose: 1.25 mg/kg/injection, schedule: Q01DX009 (ip), vehicle: saline) was 110 % of control and the T/C (dose: 2.5 mg/kg/injection, schedule: Q01DX009 (ip), vehicle: saline) was 101 % of control. For the same compound, the T/C (dose: 5.0 mg/kg/injection, schedule: Q01DX009 (ip), vehicle: saline) was 100 % of control.

With `COC1/C=C\OC2(C)Oc3c(C)c(O)c4c(c3C2=O)C2=NC(C)(C)N(c3ccccc3)C2=C(NC(=O)/C(C)=C\C=C\C(C)C(O)C(C)C(O)C(C)C(OC(C)=O)C1C)C4=O` (centres undefined) the T/C (dose: 25.0 mg/kg/injection, schedule: Q01DX009 (ip), vehicle: Klucel (hydroxypropylcellulose) (HPC)) was 100 % of control, the T/C [1] was 103 % of control and the T/C [2] was 98 % of control. For the same compound, the T/C [3] was 107 % of control.

In the case of `NNC(=O)CCCCl`, the T/C (dose: 60.0 mg/kg/injection, schedule: Q01DX005 (ip), vehicle: saline) is reported as 111 % of control and the T/C (dose: 120.0 mg/kg/injection, schedule: Q01DX005 (ip), vehicle: saline) is reported as 110 % of control.

In the case of `Cc1cccc(C)c1NC(=O)CCC(=O)O`, the T/C [4] is reported as 104 % of control, the T/C [5] is reported as 102 % of control and the T/C [6] is reported as 103 % of control.

With `C=CC(=O)NC(CSCc1ccccc1)C(=O)O` (centres undefined) the T/C [4] was 98 % of control, the T/C [5] was 109 % of control and the T/C [6] was 98 % of control.

`O=C(NC(CSSCC(NC(=O)OCc1ccccc1)C(=O)O)C(=O)O)OCc1ccccc1` (centres undefined) was tested, and the T/C (dose: 100.0 mg/kg/injection, schedule: Q04DX003 (ip), vehicle: other) was 100 % of control, the T/C (dose: 200.0 mg/kg/injection, schedule: Q04DX003 (ip), vehicle: other) was 100 % of control and the T/C (dose: 400.0 mg/kg/injection, schedule: Q04DX003 (ip), vehicle: other) was 100 % of control.

In the case of `Nc1nc(N)nc(CCC(Cl)(Cl)Cl)n1`, the T/C (dose: 12.5 mg/kg/injection, schedule: Q01DX009 (ip), vehicle: distilled water + Tween-80) is reported as 100 % of control, the T/C (dose: 25.0 mg/kg/injection, schedule: Q01DX009 (ip), vehicle: distilled water + Tween-80) is reported as 100 % of control and the T/C (dose: 50.0 mg/kg/injection, schedule: Q01DX009 (ip), vehicle: distilled water + Tween-80) is reported as 95 % of control. The T/C (dose: 100.0 mg/kg/injection, schedule: Q01DX009 (ip), vehicle: distilled water + Tween-80) was 95 % of control and the T/C (dose: 200.0 mg/kg/injection, schedule: Q01DX009 (ip), vehicle: distilled water + Tween-80) was 100 % of control.

In the case of `Cc1cc(C)nc(NN=O)c1`, the T/C (dose: 3.12 mg/kg/injection, schedule: Q01DX009 (ip), vehicle: water) is reported as 104 % of control and 112 % of control, the T/C (dose: 6.25 mg/kg/injection, schedule: Q01DX009 (ip), vehicle: water) is reported as 121 % of control and the T/C (dose: 12.5 mg/kg/injection, schedule: Q01DX009 (ip), vehicle: water) is reported as 121 % of control. The T/C [7] was 95 % of control.

`OCc1ccc2ccc3ccc(CO)nc3c2n1` was tested, and the T/C (dose: 12.5 mg/kg/injection, schedule: Q01DX005 (ip), vehicle: saline with Tween-80) was 97 % of control, the T/C (dose: 25.0 mg/kg/injection, schedule: Q01DX005 (ip), vehicle: saline with Tween-80) was 111 % of control and the T/C (dose: 50.0 mg/kg/injection, schedule: Q01DX005 (ip), vehicle: saline with Tween-80) was 104 % of control and 109 % of control. For the same compound, the T/C (dose: 100.0 mg/kg/injection, schedule: Q01DX005 (ip), vehicle: saline with Tween-80) was 113 % of control.

`CCC(=O)c1c(O)cc(O)cc1O` was tested, and the T/C (dose: 50.0 mg/kg/injection, schedule: Q04DX003 (ip), vehicle: saline with Tween-80) was 103 % of control, the T/C (dose: 100.0 mg/kg/injection, schedule: Q04DX003 (ip), vehicle: saline with Tween-80) was 103 % of control and the T/C (dose: 200.0 mg/kg/injection, schedule: Q04DX003 (ip), vehicle: saline with Tween-80) was 102 % of control. For the same compound, the T/C (dose: 400.0 mg/kg/injection, schedule: Q04DX003 (ip), vehicle: saline with Tween-80) was 103 % of control.

In the case of `C=CCc1cc(OC)c(OCC(=O)O)c(OC)c1`, the T/C (dose: 100.0 mg/kg/injection, schedule: Q04DX003 (ip), vehicle: Klucel (hydroxypropylcellulose) (HPC)) is reported as 98 % of control and the T/C (dose: 200.0 mg/kg/injection, schedule: Q04DX003 (ip), vehicle: Klucel (hydroxypropylcellulose) (HPC)) is reported as 109 % of control.

In the case of `Clc1cc(Cl)c(C[N+]23CN4CN(CN(C4)C2)C3)cc1Cl`, the T/C [8] is reported as 102 % of control, the T/C [9] is reported as 100 % of control and 107 % of control and the T/C [10] is reported as 106 % of control and 109 % of control. For the same compound, the T/C [11] was 122 % of control, the T/C [12] was 111 % of control and 120 % of control and the T/C [13] was 117 % of control.

In the case of `O=C(O)CCC(=O)OCN1C(=O)C2C3C=CC(C2C1=O)C1C2C(=O)N(COC(=O)CCC(=O)O)C(=O)C2C31` (centres undefined), the T/C (dose: 25.0 mg/kg/injection, schedule: Q01DX009 (ip), vehicle: water) is reported as 103 % of control and 107 % of control (2×), the T/C [7] is reported as 115 % of control and 116 % of control and 122 % of control and the T/C (dose: 100.0 mg/kg/injection, schedule: Q01DX009 (ip), vehicle: water) is reported as 165 % of control and 178 % of control.

In the case of `C1CN(P2(N3CC3)=NP(N3CC3)(N3CC3)=NP(N3CC3)(N3CC3)=N2)CCO1` (centres undefined), the T/C (dose: 3.13 mg/kg/injection, schedule: Q01DX009 (ip), vehicle: saline) is reported as 123 % of control, the T/C (dose: 4.0 mg/kg/injection, schedule: Q01DX009 (ip), vehicle: saline) is reported as 161 % of control and the T/C [8] is reported as 157 % of control. The T/C (dose: 8.0 mg/kg/injection, schedule: Q01DX009 (ip), vehicle: saline) was 212 % of control, the T/C [9] was 183 % of control and the T/C (dose: 16.0 mg/kg/injection, schedule: Q01DX009 (ip), vehicle: saline) was 174 % of control. The T/C [10] was 215 % of control, the T/C (dose: 32.0 mg/kg/injection, schedule: Q01DX009 (ip), vehicle: saline) was 235 % of control and the T/C [12] was 104 % of control. For the same compound, the T/C (dose: 64.0 mg/kg/injection, schedule: Q01DX009 (ip), vehicle: saline) was 108 % of control and the T/C [13] was 86 % of control.

`Cc1ccc(C(=O)C=C(C(F)(F)F)C(F)(F)F)cc1` was tested, and the T/C [8] was 100 % of control, the T/C (dose: 6.25 mg/kg/injection, schedule: Q04DX003 (ip), vehicle: saline) was 95 % of control and the T/C [9] was 100 % of control. For the same compound, the T/C (dose: 12.5 mg/kg/injection, schedule: Q04DX003 (ip), vehicle: saline) was 95 % of control, the T/C [10] was 109 % of control and the T/C (dose: 25.0 mg/kg/injection, schedule: Q04DX003 (ip), vehicle: saline) was 104 % of control.

For `CCOC(=O)CCC(Cl)(Cl)Cl`, the T/C [1] was 100 % of control, the T/C [2] was 100 % of control and the T/C [3] was 97 % of control.

In the case of `CSc1nc(Cl)c2ncn(C3C=CC(OC(C)=O)CO3)c2n1` (centres undefined), the T/C [4] is reported as 103 % of control, the T/C [5] is reported as 99 % of control and the T/C [6] is reported as 109 % of control.

In the case of `NCCCCC(NC(=O)OCc1ccccc1)C(=O)NC(CCCCN)C(=O)NC(CCCCN)C(=O)NC(Cc1c[nH]c2ccccc12)C(=O)OCc1ccccc1` (centres undefined) (Cbz-KKKW-OBn; configuration not given here), the T/C [4] is reported as 100 % of control, the T/C [5] is reported as 96 % of control and the T/C [6] is reported as 100 % of control.

In the case of `CN(C)CC(CN(C)C)C(=O)c1ccc(O)cc1`, the T/C (dose: 6.25 mg/kg/injection, schedule: Q01DX005 (ip), vehicle: saline) is reported as 118 % of control, the T/C (dose: 12.5 mg/kg/injection, schedule: Q01DX005 (ip), vehicle: saline) is reported as 105 % of control and the T/C (dose: 25.0 mg/kg/injection, schedule: Q01DX005 (ip), vehicle: saline) is reported as 110 % of control.

`c1ccc2c(C3N4CCCN3CC4)c[nH]c2c1` (centres undefined) was tested, and the T/C (dose: 25.0 mg/kg/injection, schedule: Q01DX009 (ip), vehicle: saline with Tween-80) was 103 % of control and 104 % of control and 119 % of control, the T/C [11] was 98 % of control and 106 % of control and 118 % of control and the T/C (dose: 100.0 mg/kg/injection, schedule: Q01DX009 (ip), vehicle: saline with Tween-80) was 103 % of control and 114 % of control and 122 % of control. For the same compound, the T/C (dose: 200.0 mg/kg/injection, schedule: Q01DX009 (ip), vehicle: saline with Tween-80) was 105 % of control and 95 % of control.

`CC12CC3(Br)CC(Br)(C1)CC(CC(=O)O)(C2)C3` was tested, and the T/C [1] was 103 % of control, the T/C [2] was 112 % of control and the T/C [3] was 112 % of control.

In the case of `Nn1cnc2nc[nH]c2c1=O`, the T/C (dose: 100.0 mg/kg/injection, schedule: Q01DX001 (ip), vehicle: saline with Tween-80) is reported as 101 % of control, the T/C (dose: 200.0 mg/kg/injection, schedule: Q01DX001 (ip), vehicle: saline with Tween-80) is reported as 104 % of control and the T/C (dose: 400.0 mg/kg/injection, schedule: Q01DX001 (ip), vehicle: saline with Tween-80) is reported as 95 % of control.

In the case of `CC1(C)CC(OP(=O)(OC2CC(C)(C)N(O)C(C)(C)C2)N2CC2)CC(C)(C)N1O`, the T/C (dose: 100.0 mg/kg/injection, schedule: Q01DX001 (ip), vehicle: Klucel (hydroxypropylcellulose) (HPC)) is reported as 100 % of control, the T/C (dose: 200.0 mg/kg/injection, schedule: Q01DX001 (ip), vehicle: Klucel (hydroxypropylcellulose) (HPC)) is reported as 97 % of control and the T/C (dose: 400.0 mg/kg/injection, schedule: Q01DX001 (ip), vehicle: Klucel (hydroxypropylcellulose) (HPC)) is reported as 104 % of control.
